Experimental data as given in publication PMC9046089, “CCNE1 amplification is synthetic lethal with PKMYT1 kinase inhibition” (Nature, 2022).
Several values for one entry are separate records, joined by “and”; a condition that tells them apart may be missing. Equal entries are not always repeated.

Assays:
Assay type in all cases: in vivo, mouse
HCC1569 xenografts = test: Cell line-derived xenograft, tumour growth; conditions: Gem 20mg/kg QWx4 IP
Protocol: (§1) HCC1569, OVCAR3 and SUM149PT cells were implanted at 5 × 10^6 cells per mouse into the right flanks of female CB17-SCID, SCID-beige and NOD-SCID mice respectively (5–7 weeks old; Charles River), in 1:1 Matrigel:medium (Matrigel Corning, cat. no. CB35248).
(§2) Gemcitabine was administered once weekly intraperitoneally in saline. Animals were monitored for tumour volume, clinical signs and body weight three times per week. Tumour volume was measured using a digital calliper and calculated using the formula 0.52 × L × W^2, where L is length and W is width. Response to treatment was evaluated for tumour growth inhibition (% TGI). […] TV is tumour volume and subscripts indicate treatment group and time of sampling. According to NIACC and IACUC approved animal protocols, mice were euthanized as soon as their tumour volume exceeded 2,000 mm^3. Change in body weight (BW) was calculated using the formula: %BW change = (BWlast − BWday0/BWday0) × 100. BW change was calculated based on individual body weight changes relative to day 0. Statistical significance relative to vehicle control or other test groups was established by one-way ANOVA followed by Fisher’s least significant difference test for multiple groups and unpaired t-test for two group comparisons (GraphPad Prism v9.0). Investigators were not blinded during data collection and analysis.

OVCAR3 xenografts = test: Cell line-derived xenograft, tumour growth; conditions: Gem 20mg/kg QWx4 IP
Protocol: as §1, §2

[1] = Body weight change of tumour-bearing mice; conditions: Gem 20mg/kg QWx4 IP, individual mice
Protocol: as §2

## Nc1ccn([C@@H]2O[C@H](CO)[C@@H](O)C2(F)F)c(=O)n1 [Gem]
HCC1569 xenografts; time 0, individual animals
  Tumor growth of HCC1569 xenografts: 105.749 and 117.204 and 102.711 and 148.478 and 128.24 and 85.4122 and 124.681
HCC1569 xenografts; time 0, individual mice
  HCC1569 tumor volume (mm3): 105.749 mm3 and 117.204 mm3 and 102.711 mm3 and 148.478 mm3 and 128.24 mm3 and 85.4122 mm3 and 124.681 mm3
HCC1569 xenografts; time 3, individual animals
  Tumor growth of HCC1569 xenografts: 151.536 and 159.659 and 162.777 and 151.443 and 177.63 and 154.669 and 192.079
HCC1569 xenografts; time 3, individual mice
  HCC1569 tumor volume (mm3): 151.536 mm3 and 159.659 mm3 and 162.777 mm3 and 151.443 mm3 and 177.63 mm3 and 154.669 mm3 and 192.079 mm3
HCC1569 xenografts; time 7, individual animals
  Tumor growth of HCC1569 xenografts: 138.854 and 145.293 and 143.642 and 108.998 and 199.13 and 137.034 and 160.487
HCC1569 xenografts; time 7, individual mice
  HCC1569 tumor volume (mm3): 138.854 mm3 and 145.293 mm3 and 143.642 mm3 and 108.998 mm3 and 199.13 mm3 and 137.034 mm3 and 160.487 mm3
HCC1569 xenografts; time 9, individual animals
  Tumor growth of HCC1569 xenografts: 174.796 and 137.503 and 143.242 and 176.878 and 226.134 and 163.467 and 188.183
HCC1569 xenografts; time 9, individual mice
  HCC1569 tumor volume (mm3): 174.796 mm3 and 137.503 mm3 and 143.242 mm3 and 176.878 mm3 and 226.134 mm3 and 163.467 mm3 and 188.183 mm3
HCC1569 xenografts; time 11, individual animals
  Tumor growth of HCC1569 xenografts: 223.015 and 184.936 and 195 and 179.883 and 241.724 and 153.608 and 171.36
HCC1569 xenografts; time 11, individual mice
  HCC1569 tumor volume (mm3): 223.015 mm3 and 184.936 mm3 and 195 mm3 and 179.883 mm3 and 241.724 mm3 and 153.608 mm3 and 171.36 mm3
HCC1569 xenografts; time 14, individual animals
  Tumor growth of HCC1569 xenografts: 204.003 and 261.558 and 183.38 and 118.879 and 239.252 and 185.171 and 204.752
HCC1569 xenografts; time 14, individual mice
  HCC1569 tumor volume (mm3): 204.003 mm3 and 261.558 mm3 and 183.38 mm3 and 118.879 mm3 and 239.252 mm3 and 185.171 mm3 and 204.752 mm3
HCC1569 xenografts; time 16, individual animals
  Tumor growth of HCC1569 xenografts: 195.461 and 216.259 and 164.879 and 153.977 and 196.654 and 193.17 and 190.906
HCC1569 xenografts; time 16, individual mice
  HCC1569 tumor volume (mm3): 195.461 mm3 and 216.259 mm3 and 164.879 mm3 and 153.977 mm3 and 196.654 mm3 and 193.17 mm3 and 190.906 mm3
HCC1569 xenografts; time 18, individual animals
  Tumor growth of HCC1569 xenografts: 221.924 and 212.425 and 129.02 and 208.213 and 166.677 and 229.196 and 227.014
HCC1569 xenografts; time 18, individual mice
  HCC1569 tumor volume (mm3): 221.924 mm3 and 212.425 mm3 and 129.02 mm3 and 208.213 mm3 and 166.677 mm3 and 229.196 mm3 and 227.014 mm3
HCC1569 xenografts; time 21, individual animals
  Tumor growth of HCC1569 xenografts: 185.067 and 156.685 and 149.724 and 161.993 and 145.441 and 216.395 and 247.024
HCC1569 xenografts; time 21, individual mice
  HCC1569 tumor volume (mm3): 185.067 mm3 and 156.685 mm3 and 149.724 mm3 and 161.993 mm3 and 145.441 mm3 and 216.395 mm3 and 247.024 mm3
HCC1569 xenografts; time 23, individual animals
  Tumor growth of HCC1569 xenografts: 177.467 and 131.768 and 165.163 and 189.467 and 130.853 and 205.401 and 303.013
HCC1569 xenografts; time 23, individual mice
  HCC1569 tumor volume (mm3): 177.467 mm3 and 131.768 mm3 and 165.163 mm3 and 189.467 mm3 and 130.853 mm3 and 205.401 mm3 and 303.013 mm3
OVCAR3 xenografts; time 0, individual animals
  Tumor growth of OVCAR3 xenografts: 127.251 and 90.8608 and 112.694 and 96.336 and 125.032 and 141.631 and 118.987
OVCAR3 xenografts; time 3, individual animals
  Tumor growth of OVCAR3 xenografts: 203.437 and 160.884 and 245.447 and 183.946 and 210.941 and 179.854 and 163.096
OVCAR3 xenografts; time 7, individual animals
  Tumor growth of OVCAR3 xenografts: 169.802 and 183.034 and 268.576 and 188.758 and 168.18 and 112.682 and 213.401
OVCAR3 xenografts; time 9, individual animals
  Tumor growth of OVCAR3 xenografts: 250.578 and 145.319 and 296.396 and 174.266 and 208.875 and 111.675 and 222.442
OVCAR3 xenografts; time 11, individual animals
  Tumor growth of OVCAR3 xenografts: 150.312 and 146.391 and 223.166 and 200.774 and 206.854 and 146.012 and 157.334
OVCAR3 xenografts; time 14, individual animals
  Tumor growth of OVCAR3 xenografts: 213.268 and 123.935 and 200.751 and 155.809 and 196.515 and 140.875 and 141.404
OVCAR3 xenografts; time 16, individual animals
  Tumor growth of OVCAR3 xenografts: 237.66 and 135.959 and 229.1 and 226.618 and 235.663 and 103.266 and 203.735
OVCAR3 xenografts; time 18, individual animals
  Tumor growth of OVCAR3 xenografts: 251.017 and 162.673 and 318.873 and 214.059 and 306.209 and 174.974 and 210.077
OVCAR3 xenografts; time 21, individual animals
  Tumor growth of OVCAR3 xenografts: 247.655 and 170.92 and 321.104 and 222.893 and 230.514 and 99.1867 and 166.154
OVCAR3 xenografts; time 23, individual animals
  Tumor growth of OVCAR3 xenografts: 217.609 and 142.992 and 287.288 and 218.481 and 211.021 and 149.048 and 110.272
OVCAR3 xenografts; time 25, individual animals
  Tumor growth of OVCAR3 xenografts: 172.222 and 104.59 and 228.551 and 206.723 and 216.753 and 107.406 and 123.877
OVCAR3 xenografts; time 28, individual animals
  Tumor growth of OVCAR3 xenografts: 184.75 and 98.3676 and 117.318 and 112.167 and 170.273 and 123.013 and 138.241
OVCAR3 xenografts; time 31, individual animals
  Tumor growth of OVCAR3 xenografts: 217.819 and 125.965 and 185.385 and 170.168 and 195 and 193.032 and 178.082
OVCAR3 xenografts; time 35, individual animals
  Tumor growth of OVCAR3 xenografts: 357.498 and 160.976 and 228.46 and 273.584 and 249.247 and 117.028 and 138.719
[1]; time 0
  Change in body weight (%) HCC1569: 0%
[1]; time 3
  Change in body weight (%) HCC1569: 2.186% and 4.278% and -2.094% and 2.073% and 1.538% and -0.9709% and -1.493%
[1]; time 7
  Change in body weight (%) HCC1569: 3.279% and 3.743% and 1.047% and 5.181% and 1.026% and 0% and 1.99%
[1]; time 9
  Change in body weight (%) HCC1569: 0.5464% and 3.209% and 0.5236% and 3.109% and 2.5641% and 2.427% and 1.99%
[1]; time 11
  Change in body weight (%) HCC1569: 3.279% and 2.6738% and 1.571% and 2.591% and 0.5128% and 1.456% and 3.483%
[1]; time 14
  Change in body weight (%) HCC1569: 7.104% and 10.1604% and 2.6178% and 8.808% and 4.103% and 2.913% and 2.985%
[1]; time 16
  Change in body weight (%) HCC1569: 9.29% and 6.417% and 2.6178% and 5.181% and 3.077% and 4.854% and 4.975%
[1]; time 18
  Change in body weight (%) HCC1569: 8.197% and 8.556% and 3.141% and 6.218% and 3.59% and 6.796% and 0.995%
[1]; time 21
  Change in body weight (%) HCC1569: 12.5683% and 10.6952% and 5.759% and 9.326% and 8.205% and 11.6505% and 10.4478%
[1]; time 23
  Change in body weight (%) HCC1569: 13.1148% and 9.626% and 4.712% and 9.845% and 6.154% and 6.311% and 3.9801%
[1]; day 0
  Change in body weight (%) OVCAR3: 0%
[1]; day 3
  Change in body weight (%) OVCAR3: 1.389% and -3.111% and 1.796% and -4.018% and -0.4608% and -5.195% and 2.427%
[1]; day 7
  Change in body weight (%) OVCAR3: 4.63% and 0.4444% and 0.5988% and -2.232% and -0.9217% and 0% and 3.8835%
[1]; day 9
  Change in body weight (%) OVCAR3: 4.167% and -2.667% and 0% and -0.8929% and -3.226% and -2.1645% and 3.8835%
[1]; day 11
  Change in body weight (%) OVCAR3: 0% (2×) and -3.556% and 1.796% and -1.786% and -3.687% and 7.767%
[1]; day 14
  Change in body weight (%) OVCAR3: 2.778% and -1.333% and 0.5988% and -0.8929% and 0% and 0.8658% and 9.709%
[1]; day 16
  Change in body weight (%) OVCAR3: 3.7037% and -2.667% and -0.5988% and -1.786% and -4.147% and 0.4329% and 7.282%
[1]; day 18
  Change in body weight (%) OVCAR3: 4.63% and -2.222% and 0.5988% and -0.4464% and 1.843% and -1.7316% and 4.854%
[1]; day 21
  Change in body weight (%) OVCAR3: 8.7963% and 1.778% and 1.796% and -0.4464% and 2.765% and 0% and 8.252%
